target: PD-1/PD-L1 (Homo sapiens (Human), UniProt Q9NZQ7); test: PD-1/PD-L1 Homogeneous Time-Resolved Fluorescence (HTRF) Binding Assay; details: recombinant human PD-1 (3 nM) and PD-L1 (10 nM), 25° C., PBS pH 7.4
Method in brief: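 Fc-tagged human PD-1 (25-167, 3 nM) and His-tagged PD-L1 (19-238, 10 nM) preincubated with inhibitor 40 min in PBS pH 7.4, 0.05% Tween-20, 0.1% BSA, 1% DMSO, 25 °C. Binding detected by HTRF (Eu anti-IgG/APC anti-His, 665/620 nm) after 60 min; IC50 from percent control activity.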

PD-1/PD-L1, sequence (Q9NZQ7 19-238): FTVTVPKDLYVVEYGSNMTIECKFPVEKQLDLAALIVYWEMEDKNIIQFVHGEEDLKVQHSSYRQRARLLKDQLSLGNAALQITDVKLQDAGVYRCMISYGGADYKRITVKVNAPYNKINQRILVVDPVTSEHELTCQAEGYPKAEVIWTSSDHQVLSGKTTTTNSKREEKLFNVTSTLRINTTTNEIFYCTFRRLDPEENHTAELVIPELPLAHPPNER

IC50, ≤ 10 nM:
Cc1c(-c2nc3cc(CN4CC(C(=O)O)C4)cc(C#N)c3o2)cccc1-c1cccc(-n2cc3c(n2)CN(C(C)C)CC3)c1Cl [Example 239, 1-((2-(2′-chloro-3′-(6-isopropyl-4,5,6,7-tetrahydro-2H-pyrazolo[3,4-c]pyridin-2-yl)-2-methylbiphenyl-3-yl)-7-cyanobenzo[d]oxazol-5-yl)methyl)azetidine-3-carboxylic acid]
Cc1c(-c2nc3cc(CN4CC5(CC(C(=O)O)C5)C4)cc(C#N)c3o2)cccc1-c1cccc(-c2nc3c(s2)CN(C(=O)CN(C)CCO)C3)c1C [Example 230, 2-((7-cyano-2-(3′-(5-(2-((2-hydroxyethyl)(methyl)amino)acetyl)-5,6-dihydro-4H-pyrrolo[3,4-d]thiazol-2-yl)-2,2′-dimethylbiphenyl-3-yl)benzo[d]oxazol-5-yl)methyl)-2-azaspiro[3.3]heptane-6-carboxylic acid]
Cc1c(Nc2nccc3cc(CNC[C@@H](C)O)cnc23)cccc1-c1cccc(-c2nc3cc(CN4CC[C@@](C)(C(=O)O)C4)cc(C#N)c3o2)c1C [Example 192, (R)-1-((7-cyano-2-(3′-(3-(((R)-2-hydroxypropylamino)methyl)-1,7-naphtyridin-8-ylamino)-2,2′-dimethylbiphenyl-3-yl)benzo[d]oxazol-5-yl)methyl)-3-methylpyrrolidine-3-carboxylic acid]
Cc1c(-c2nc3c(o2)CN(C(=O)CN2CC[C@@H](O)C2)C3)cccc1-c1cccc(-c2nc3cc(CN4CC[C@@](C)(C(=O)O)C4)cc(C#N)c3o2)c1C [Example 247, (R)-1-((7-cyano-2-(3′-(5-(2-((R)-3-hydroxypyrrolidin-1-yl)acetyl)-5,6-dihydro-4H-pyrrolo[3,4-d]oxazol-2-yl)-2,2′-dimethyl-[1,1′-biphenyl]-3-yl)-benzo[d]oxazol-5-yl)methyl)-3-methylpyrrolidine-3-carboxylic acid]
Cc1c(-c2nc3cc(CN4CC[C@@H](C(=O)O)C4)cc(Cl)c3o2)cccc1-c1cccc(-c2nc3c(s2)CNCC3)c1C [Example 70, (R)-1-((7-chloro-2-(2,2′-dimethyl-3′-(4,5,6,7-tetrahydrothiazolo[5,4-c]pyridin-2-yl)-[1,1′-biphenyl]-3-yl)benzo[d]oxazol-5-yl)methyl)pyrrolidine-3-carboxylic acid]
Cc1c(-c2nc3c(s2)CNCC3)cccc1-c1cccc(-c2nc3cc(CN4CC[C@@H](C(=O)O)C4)cc(C#N)c3o2)c1Cl [Example 69, (R)-1-((2-(2-chloro-2′-methyl-3′-(4,5,6,7-tetrahydrothiazolo[5,4-c]pyridin-2-yl)-[1,1′-biphenyl]-3-yl)-7-cyanobenzo[d]oxazol-5-yl)methyl)pyrrolidine-3-carboxylic acid]
CCN(C)CC(=O)N1Cc2nc(-c3cccc(-c4cccc(-c5nc6cc(CN7CCC(C(=O)O)CC7)cc(C#N)c6o5)c4C)c3C)oc2C1 [Example 244, 1-((7-cyano-2-(3′-(5-(N-ethyl-N-methylglycyl)-5,6-dihydro-4H-pyrrolo[3,4-d]oxazol-2-yl)-2,2′-dimethyl-[1,1′-biphenyl]-3-yl)benzo[d]oxazol-5-yl)methyl)piperidine-4-carboxylic acid]
Cc1c(-c2nc3cc(CN4CC5(CC(C(=O)O)C5)C4)cc(C#N)c3o2)cccc1-c1cccc(-c2nc3c(s2)CN(C(=O)CN(C)[C@@H](C)CO)C3)c1C [Example 232, 2-((7-cyano-2-(3′-(5-(2-(((S)-1-hydroxypropan-2-yl)(methyl)amino)acetyl)-5,6-dihydro-4H-pyrrolo[3,4-d]thiazol-2-yl)-2,2′-dimethylbiphenyl-3-yl)benzo[d]oxazol-5-yl)methyl)-2-azaspiro[3.3]heptane-6-carboxylic acid]
Cc1c(Nc2nccc3cc(CN4CC[C@H](O)C4)cnc23)cccc1-c1cccc(-c2nc3cc(CN4CCC[C@H]4C(=O)O)cc(C#N)c3o2)c1C [Example 35, (S)-1-((7-cyano-2-(3′-(3-(((S)-3-hydroxypyrrolidin-1-yl)methyl)-1,7-naphthyridin-8-ylamino)-2,2′-dimethylbiphenyl-3-yl)benzo[d]oxazol-5-yl)methyl)pyrrolidine-2-carboxylic acid]
Cc1c(-c2nc3cc(CN4CC[C@@](C)(C(=O)O)C4)cc(C#N)c3o2)cccc1-c1cccc(Nc2nccc3cc(CN4CC[C@H](O)C4)cnc23)c1Cl [Example 34, (R)-1-((2-(2′-chloro-3′-(3-(((S)-3-hydroxypyrrolidin-1-yl)methyl)-1,7-naphthyridin-8-ylamino)-2-methylbiphenyl-3-yl)-7-cyanobenzo[d]oxazol-5-yl)methyl)-3-methylpyrrolidine-3-carboxylic acid]
Cc1c(COc2cc(OCc3cncc(C#N)c3)c(CN3CC[C@@H](O)C3)cc2Cl)cccc1-c1cccc(-c2nc3cc(CN4CC[C@@H](C(=O)O)C4)cc(Cl)c3o2)c1C [Example 148, (R)-1-((7-chloro-2-(3′-((2-chloro-5-((5-cyanopyridin-3-yl)methoxy)-4-(((R)-3-hydroxypyrrolidin-1-yl)methyl)phenoxy)methyl)-2,2′-dimethyl-[1,1′-biphenyl]-3-yl)benzo[d]oxazol-5-yl)methyl)pyrrolidine-3-carboxylic acid]
Cc1c(Nc2nccc3cc(CN4CC[C@H](O)C4)cnc23)cccc1-c1cccc(-c2nc3cc(CN(C)CCC(=O)O)cc(Cl)c3o2)c1C [Example 21, (S)-3-(((7-chloro-2-(3′-(3-((3-hydroxypyrrolidin-1-yl)methyl)-1,7-naphthyridin-8-ylamino)-2,2′-dimethylbiphenyl-3-yl)benzo[d]oxazol-5-yl)methyl)(methyl)amino)propanoic acid]
Cc1c(-c2nc3cc(CN4CC[C@@](C)(C(=O)O)C4)cc(C#N)c3o2)cccc1-c1cccc(-c2nc3c(s2)CN(C(=O)CN[C@H]2C[C@@H](O)C2)C3)c1C [Example 228, (R)-1-((7-cyano-2-(3′-(5-(2-(cis-3-hydroxycyclobutylamino)acetyl)-5,6-dihydro-4H-pyrrolo[3,4-d]thiazol-2-yl)-2,2′-dimethylbiphenyl-3-yl)benzo[d]oxazol-5-yl)methyl)-3-methylpyrrolidine-3-carboxylic acid]
Cc1c(Nc2nccc3cc(CN4CC[C@@H](O)C4)cnc23)cccc1-c1cccc(-c2nc3cc(CNCC(C)(C)C(=O)O)cc(C#N)c3o2)c1C [Example 86, (R)-3-((7-cyano-2-(3′-(3-((3-hydroxypyrrolidin-1-yl)methyl)-1,7-naphthyridin-8-ylamino)-2,2′-dimethylbiphenyl-3-yl)benzo[d]oxazol-5-yl)methylamino)-2,2-dimethylpropanoic acid]
Cc1c(-c2nc3cc(CN4CC[C@@H](C(=O)O)C4)cc(C#N)c3o2)cccc1-c1cccc(Nc2nccc3cc(C4CCCN4)cnc23)c1Cl (stereo partly drawn) [Example 97, (3R)-1-((2-(2′-chloro-2-methyl-3′-(3-(pyrrolidin-2-yl)-1,7-naphthyridin-8-ylamino)biphenyl-3-yl)-7-cyanobenzo[d]oxazol-5-yl)methyl)pyrrolidine-3-carboxylic acid]
Cc1c(-c2nc3cc(CN4CC(C(=O)O)C4)cc(C#N)c3o2)cccc1-c1cccc(-c2nc3c(s2)CN(CCO)CC3)c1C [Example 68, 1-((7-cyano-2-(3′-(5-(2-hydroxyethyl)-4,5,6,7-tetrahydrothiazolo[5,4-c]pyridin-2-yl)-2,2′-dimethyl-[1,1′-biphenyl]-3-yl)benzo[d]oxazol-5-yl)methyl)azetidine-3-carboxylic acid]
Cc1c(-c2nc3c(o2)CCNC3)cccc1-c1cccc(-c2nc3cc(CN4CC[C@@H](C(=O)O)C4)cc(Cl)c3o2)c1C [Example 74, (R)-1-((7-chloro-2-(2,2′-dimethyl-3′-(4,5,6,7-tetrahydrooxazolo[4,5-c]pyridin-2-yl)-[1,1′-biphenyl]-3-yl)benzo[d]oxazol-5-yl)methyl)pyrrolidine-3-carboxylic acid]
Cc1c(Nc2ncnc3cc(CN4CC[C@@H](O)C4)cnc23)cccc1-c1cccc(-c2nc3cc(CN4CCC(C(=O)O)CC4)cc(C#N)c3o2)c1C [Example 207, (R)-1-((7-cyano-2-(3′-(7-((3-hydroxypyrrolidin-1-yl)methyl)pyrido [3,2-d]pyrimidin-4-ylamino)-2,2′-dimethylbiphenyl-3-yl)benzo[d]oxazol-5-yl)methyl)piperidine-4-carboxylic acid]
Cc1c(-c2nc3cc(CN4CC[C@@H](O)C4)cc(C#N)c3o2)cccc1-c1cccc(NC(=O)c2nc3c(n2C)CCN(C[C@H]2CC[C@@H](C(=O)O)CC2)C3)c1Cl [Example 266, cis-4-((2-(2-chloro-3′-(7-cyano-5-(((R)-3-hydroxypyrrolidin-1-yl)methyl)benzo[d]oxazol-2-yl)-2′-methylbiphenyl-3-ylcarbamoyl)-1-methyl-6,7-dihydro-1H-imidazo[4,5-c]pyridin-5(4H)-yl)methyl)cyclohexane carboxylic acid]
Cc1c(-c2nc3cc(CN4CCCC[C@H]4C(=O)O)cc(Cl)c3o2)cccc1-c1cccc(NC(=O)c2ccc(CNCCO)cn2)c1Cl [Example 1, (S)-1-((7-chloro-2-(2′-chloro-3′-(5-(((2-hydroxyethyl)amino)methyl)picolinamido)-2-methyl-[1,1′-biphenyl]-3-yl)benzo[d]oxazol-5-yl)methyl)piperidine-2-carboxylic acid]
